Measured values published in patent publication US10947260B2, “Phosphinolactone derivatives and pharmaceutical uses thereof” (INSTITUT NATIONAL DE LA SANTE ET DE LA RECHERCHE MEDICALE …, priority 2016, dated 2021).

Assays:
[1] = test system: APPSwe mice; assay: Spatial learning in pool, APPSwe mice; type: in vivo
Experimental: FIG. 9: Spatial learning in pool (a-c) and object recognition (d-f) for APPSwe mice after 2-month treatment with compound 3b. Pool: acquisition profiles of WT mice treated with V and 3b (2 mg/kg) (a) or APPSwe mice (b). (c) Presence in training quadrant (T) and mean in the other quadrants (o) during trial test performed 48 h after the last training session. Friedman non-parametric ANOVA with repeated measures: Fr=21.7, p<0.001 for the group WT/V, Fr=21.8, p<0.001 for the group WT/3b at (a); Fr=13.0, p<0.05 for group APPSwe/V, Fr=12.2, p<0.05 for group APPSwe/3b at (b). Object recognition: Number of contacts with the objects during sessions 2 and 3 (d) and preferences for object at position 2 computed as contacts (e) or contact time (f). ^∘ p<0.05, ^∘∘ p<0.01 compared with chance level: 15 s at (c), 50% at (e, f), One Sample t-test. ^$ p<0.05, ^$$ p<0.01, ^$$$ p<0.001 compared with the mean of the other quadrants (o) at (c). *p<0.05 compared with group WT/V at (d).
FIG. 11: Spatial learning in pool (a-c) and object recognition (d-f) for APPSwe mice after 2-month treatment with compound 3c. Pool: acquisition profiles of WT mice treated with V and 3c (2 mg/kg) (a) or APPSwe mice (b). (c) Presence in training quadrant (T) and mean in the other quadrants (o) during the trial test performed 48 h after the last training session. Friedman non-parametric ANOVA with repeated measures: Fr=20.7, p<0.001 for group WT/V, Fr=17.5, p<0.001 for group WT/3c at (a); Fr=11.4, p<0.05 for group APPSwe/V, Fr=13.6, p<0.01 for group APPSwe/3b at (b). […]
The pool was a circular water chamber (diameter 140 cm, height 40 cm). […] Swims could be recorded using Videotrack® ViewPoint software, (Champagne-au-Mont-d'Or, France), with trajectories analysed for time and distance. […]
Acquisition phase: this consisted of 3 swims per day for 5 days with an interval of 20 min. […] Swim latency was measured. […] The median of swim times was calculated for each day and expressed for the experimental group as a mean±SEM.
Recall phase: a trial test was conducted […] after the last acquisition session. […] The session was monitored by video and the time spent in the training quadrant (where the platform had been placed) was measured.
After 2-month treatment, the mice were examined with a complex long-term spatial learning test, the locating of an invisible platform in a circular pool 1.5 m in diameter, followed by the object recognition test. […] 48 h after the last acquisition session, the platform was withdrawn from the pool and the time spent in each of the quadrants of the pool was analysed. […]

[2] = test system: mice treated with Aβ25-35; assay: Spontaneous alternation in the Y-maze, Aβ25-35 amyloid toxicity model; type: in vivo; details: for active dose (neuroprotective effects): non-transgenic AD model, ICV Aβ25-35 in mice
Experimental: Male mice (RjOrl:SWISS) from Janvier laboratories (Le Genest-Saint-Isle, France), aged 7-9 weeks and weighing 32±2 g were used for this study. The animals were grouped in plastic cages with free access to the […] and water, in a regulated environment (23±1° C., humidity 40-60%, 12 h light/dark cycle).
The compounds were solubilized in physiological saline solution (0.9% NaCl) or in dimethylsulfoxide (DMSO) 10% in the saline solution and administered via intraperitoneal route (IP) in a volume of 100 μl per 20 g body weight.
The amyloid-β[25-35] peptide (Aβ25-35) and control peptide (Sc.Aβ) were obtained from Genepep (Saint-Jean-de-Vedas, France). They were solubilized in injectable distilled water at a concentration of 3 mg/ml and stored at −20° C. Before injection, the peptides were incubated at 37° C. for 4 days, which enabled the Aβ25-35 peptide but not the Sc.Aβ, to form oligomers. They were administered via intracerebroventricular route (ICV). The animals were anesthetized by inhaling 2.5% isoflurane (TEM) and were given 3 μl of peptide solution via direct ICV route (Haley and McCormick's method). For injection a 10 μl Hamilton micro-syringe was used at a flow rate of 1 μl/min.
The animals were tested for spontaneous alternation performance in a Y-maze, an index of spatial working memory. The Y-maze was in grey PVC. Each arm was 40 cm long, 13 cm high, 3 cm wide at the base and 10 cm wide in the upper part, and converging at an equal angle. Each mouse was placed at one end of an arm and was able to move freely through the maze during an 8-min session. The series of arm entries, including any returns in the same arm were visually analysed. Alternation is defined as being consecutive entries in three different arms. The maximum number of alternations is therefore the total number of arm entries less two, and alternation percentage is calculated as (actual alternations/maximum possible alternations)×100. The parameters comprise the alternation percentage (memory index) and the total number of arm entries (exploratory index).
[…] After one week, the animals were tested for behavioural performance, then sacrificed and the brain dissected for biochemical analyses.
On Day 7, after the injections of 3b and amyloid peptide, the mice were tested for their ability to alternate in the Y-maze, a spatial working memory test. […] The mice were then tested for passive avoidance response, a long-term non-spatial memory test. with training on Day 8 and recall on Day 9 after the injections (FIG. 1c).

Structure (SMILES)	spatial performance of WT mice at trial test ([1]; 2 mg/kg/j IP)	active dose (neuroprotective effects) ([2]; IP) [mg/kg]	minimum active dose ([2]; dose-dependent experiments, Aβ25-35 model, IP) [mg/kg]	spatial performance of WT mice at trial test ([1]; 1 mg/kg/d)	pool acquisition profile, APPSwe animals ([1]; 1 mg/kg/d, 2-month treatment)	presence in the training quadrant at trial test, APPSwe mice ([1]; 1 mg/kg/d, 48 h after last training)	spontaneous alternation deficit induced by Aβ25-35 (Y-maze) ([2]; 0.3 mg/kg IP (range tested 0.03-0.7; only this dose efficient), Day 7)
CC1(C)COP(=O)(c2cccc(Cl)c2)C(C)(C)N1 (racemic) [Compound 3b, (±)-2-(3-Chlorophenyl)-2-oxo-3,3,5,5-tetramethyl-[1,4,2]-oxazaphosphinane]	decrease is noted in spatial performance	0.7	0.7	–	–	–	–
CC1(C)COP(=O)(c2ccc(Cl)cc2)C(C)(C)N1 (racemic) [Compound 3c, (±)-2-(4-Chlorophenyl)-2-oxo-3,3,5,5-tetramethyl-[1,4,2]-oxazaphosphinane]	–	0.3	–	decrease is noted in spatial performance	did not affect the acquisition profile	significantly restored preferred presence in the training quadrant	significantly prevents spontaneous alternation deficit
